# Read-outs that look alike come from different tables or passages of the source.
# What was measured:
# [1] = molecular target: T1, full-length recombinant human BRD4 (Homo sapiens, UniProt O60885); experiment: AlphaScreen assay, full-length BRD4 with acetylated histone H4 peptide; type: binding; conditions: full-length BRD4, acetylated H4 peptide (1-21) ligand
# T1 construct: His-tag (N); purchased Reaction Biology RD-21-153; host or cells: Sf9 insect cells
# Experimental: AlphaScreen® assay, an […], was conducted by following manufacturer's protocol (PerkinElmer, Waltham, MA) at Reaction Biology (Malvern, PA) utilizing full-length recombinant human BRD4 corresponding to amino acid position 2-1362 (NCBI Reference Sequence: NM_058243) expressed in Sf9 insect cells with an N-terminal His-tag (Reaction Biology Catalog No. RD-21-153), and histone H4 peptide (1-21) containing acetylated lysine residues at positions 5, 8, 12 and 16 as the ligand. […] H4 ligand peptide was then added and the mixture was incubated for another 30 minutes at room temperature. Streptavidin-coated donor beads and Ni acceptor beads were then added, and the mixture was incubated for additional 60 minutes. Fluorescent measurements (Ex/Em=680/520-620 nm) were taken and the data were fitted to the Hill equation with variable slopes to obtain IC50 values.
# [2] = tested on: MV4-11 cells; experiment: MV4-11 cytotoxicity assay (CellTiter-Glo); type: cell-based; conditions: Homo sapiens, 72 hr incubation
# Experimental: Cell lines: The MV4-11 cell line were obtained from American Type Culture Collection (ATCC, Manassas, VA, USA) and cultured in RPMI 1640 (Invitrogen 11879020) culture medium supplemented with 10% fetal bovine serum and 100 units/mL Penicillin, 100 μg/mL Streptomycin and maintained in a 37° C., 5% CO2/95% humidified air incubator.
# Cytotoxicity Assay: MV4-11 cells were cultured as described above, and plated in 1536-well white solid tissue culture plates using a Multidrop Combi peristaltic dispenser (ThermoFisher, Waltham, MA) at a density of 500 cells/well in 5 μL of RPMI 1640 (Invitrogen 11879020) culture medium supplemented with 10% fetal bovine serum and 100 units/mL Penicillin, 100 μg/mL Streptomycin. A 1536-well pintool dispenser outfitted with 20 nL pins (Wako Automation, San Diego, CA) was used to transfer 23 nL of compound in DMSO to the 1536-well assay plates. After 72 hr incubation at 37° C., 2.5 μL of CellTiter-Glo (Promega) was dispensed into each well using a BioRAPTR FRD dispenser (Beckman Coulter, Brea, CA). Plates were incubated at room temperature for 10 minutes, transferred to a ViewLux microplate imager (Perkin Elmer, Waltham, MA) and the ATP-coupled luminescence was measured using a 1 second exposure.
# [3] = molecular target: T2, P300 (Homo sapiens, UniProt Q09472); experiment: BROMOscan competitive ligand binding assay, P300
# T2 sequence (Q09472 1049-1156 limits assumed): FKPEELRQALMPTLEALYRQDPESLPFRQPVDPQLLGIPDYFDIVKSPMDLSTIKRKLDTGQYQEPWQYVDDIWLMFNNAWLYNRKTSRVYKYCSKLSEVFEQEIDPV
# [4] = molecular target: BRD4 (BD1, 2) (Homo sapiens, UniProt O60885); experiment: BROMOscan competitive ligand binding assay, BRD4 (BD1, 2)
# [5] = molecular target: CBP (Homo sapiens, UniProt Q92793); experiment: BROMOscan competitive ligand binding assay, CBP
# Chain of CBP (Q92793 1085-1192 limits assumed): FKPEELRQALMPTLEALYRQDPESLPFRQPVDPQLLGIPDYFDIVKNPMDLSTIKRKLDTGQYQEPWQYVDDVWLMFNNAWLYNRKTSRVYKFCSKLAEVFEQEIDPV
# [6] = tested on: acute myeloid leukemia cell line Kasumi-1; experiment: Kasumi-1 cell viability assay (CellTiter-Blue); type: cell-based; conditions: Homo sapiens, read-out: Kasumi-1 IC50
# Experimental: Cell viability assay: Cell viability assay was conducted to obtain G150, the compound concentration resulting in 50% growth inhibition, using an acute myeloid leukemia cell line Kasumi-1 (ATCC® CRL-2724™) (ATCC, Manassas, VA). Briefly, cells were seeded on a 96-well flat-bottom cell culture plate at the density of 30,000 cells per well (MV-4-11) or 10,000 cells per well (Kasumi-1) in RPMI supplemented with 10% fetal bovine serum and L-glutamine plus penicillin and streptomycin. Cells were maintained at 37° C. with 5% CO2 for 24 hours then exposed to a given compound at either 11 or 21 concentrations ranging from 0 μM to 20 μM in a 150 μL volume in the presence of 0.2% dimethyl sulfoxide, the solvent used in serial dilution of the compound. The exposure was maintained for approximately 72 hours and the cell viability was measured using CellTiter-Blue® (Promega, Madison, WI) according to manufacturer's instruction. GI50 values were calculated using a four-parameter dose-response model in Graph Pad Prism (La Jolla, CA).
# [7] = molecular target: BRD2 (BD2) (Homo sapiens, UniProt P25440); experiment: BROMOscan competitive ligand binding assay, BRD2 (BD2)
# Chain of BRD2 (BD2) (P25440 344-453 limits assumed): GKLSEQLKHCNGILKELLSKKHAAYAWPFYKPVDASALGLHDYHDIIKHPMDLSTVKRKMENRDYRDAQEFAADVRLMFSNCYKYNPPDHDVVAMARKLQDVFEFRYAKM
# [8] = molecular target: BRD3 (BD1) (Homo sapiens, UniProt Q15059); experiment: BROMOscan competitive ligand binding assay, BRD3 (BD1)
# Chain of BRD3 (BD1) (Q15059 34-140 limits assumed): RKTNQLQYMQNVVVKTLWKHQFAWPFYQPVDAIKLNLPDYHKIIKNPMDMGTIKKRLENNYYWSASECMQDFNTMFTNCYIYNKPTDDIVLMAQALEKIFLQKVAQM
# [9] = molecular target: BRD2 (BD1) (Homo sapiens, UniProt P25440); experiment: BROMOscan competitive ligand binding assay, BRD2 (BD1)
# Chain of BRD2 (BD1) (P25440 74-180 limits assumed): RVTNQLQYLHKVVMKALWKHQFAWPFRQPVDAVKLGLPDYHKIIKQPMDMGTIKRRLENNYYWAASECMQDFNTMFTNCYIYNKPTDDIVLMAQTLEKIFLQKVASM
# [10] = molecular target: BRD3 (BD1, 2) (Homo sapiens, UniProt Q15059); experiment: BROMOscan competitive ligand binding assay, BRD3 (BD1, 2)
# Chain of BRD3 (BD1, 2) (Q15059 24-416 limits assumed): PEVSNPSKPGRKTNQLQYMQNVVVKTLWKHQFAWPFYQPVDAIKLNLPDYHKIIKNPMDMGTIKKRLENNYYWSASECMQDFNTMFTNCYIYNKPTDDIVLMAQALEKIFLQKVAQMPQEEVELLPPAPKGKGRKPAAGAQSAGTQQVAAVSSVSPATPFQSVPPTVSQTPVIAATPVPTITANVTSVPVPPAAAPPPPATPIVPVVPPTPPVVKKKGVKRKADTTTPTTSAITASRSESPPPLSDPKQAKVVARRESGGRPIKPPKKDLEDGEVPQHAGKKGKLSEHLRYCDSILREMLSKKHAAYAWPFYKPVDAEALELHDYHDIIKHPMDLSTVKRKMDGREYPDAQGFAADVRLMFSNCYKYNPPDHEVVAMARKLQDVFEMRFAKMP
# [11] = molecular target: BRDT (BD1) (Homo sapiens, UniProt Q58F21); experiment: BROMOscan competitive ligand binding assay, BRDT (BD1)
# [12] = molecular target: BRDT (BD1, 2) (Homo sapiens, UniProt Q58F21); experiment: BROMOscan competitive ligand binding assay, BRDT (BD1, 2)
# [13] = molecular target: BRD3 (BD2) (Homo sapiens, UniProt Q15059); experiment: BROMOscan competitive ligand binding assay, BRD3 (BD2)
# Chain of BRD3 (BD2) (Q15059 306-415 limits assumed): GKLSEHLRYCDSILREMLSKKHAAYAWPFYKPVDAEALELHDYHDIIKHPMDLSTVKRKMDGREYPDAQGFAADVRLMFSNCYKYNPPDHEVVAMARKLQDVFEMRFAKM
# [14] = molecular target: BRD2 (BD1, 2) (Homo sapiens, UniProt P25440); experiment: BROMOscan competitive ligand binding assay, BRD2 (BD1, 2)
# Chain of BRD2 (BD1, 2) (P25440 71-455 limits assumed): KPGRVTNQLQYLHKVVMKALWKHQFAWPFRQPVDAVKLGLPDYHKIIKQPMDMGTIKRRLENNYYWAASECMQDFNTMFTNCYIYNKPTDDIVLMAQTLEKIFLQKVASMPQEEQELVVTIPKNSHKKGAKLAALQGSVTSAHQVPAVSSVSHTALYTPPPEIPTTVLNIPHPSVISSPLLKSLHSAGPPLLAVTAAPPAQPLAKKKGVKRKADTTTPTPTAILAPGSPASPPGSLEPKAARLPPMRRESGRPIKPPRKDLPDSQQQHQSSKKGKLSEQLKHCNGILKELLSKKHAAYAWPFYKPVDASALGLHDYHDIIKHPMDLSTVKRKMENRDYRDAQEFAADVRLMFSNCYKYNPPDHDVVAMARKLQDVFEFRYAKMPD
# [15] = molecular target: BRDT (BD2) (Homo sapiens, UniProt Q58F21); experiment: BROMOscan competitive ligand binding assay, BRDT (BD2)
# [16] = molecular target: BRD4 (BD2) (Homo sapiens, UniProt O60885); experiment: BROMOscan competitive ligand binding assay, BRD4 (BD2)
# [17] = molecular target: BRD4 (BD1) (Homo sapiens, UniProt O60885); experiment: BROMOscan competitive ligand binding assay, BRD4 (BD1)
# [18] = Kasumi 1, approximately 72 hours exposure, CellTiter-Blue
Compound,IC50 [1] [nM],IC50 [2] [nM],Kd [3] [nM],Kd ([4]; tandem bromodomains) [nM],Kd [5] [nM],other results
"Cc1cc(-c2ccc3nc(-c4cnn(CC(C)(C)O)c4)nc(N4CCOC[C@@H]4C4CC4)c3c2)cn(C)c1=O [Cpd. 3, (S)-5-(4-(3-cyclopropylmorpholino)-2-(1-(2-hydroxy-2-methylpropyl)-1H-pyrazol-4-yl)quinazolin-6-yl)-1,3-dimethylpyridin-2(1H)-one]",100 to 500,500 to 5000,100 to 500,< 100,100 to 500,
"Cn1cc(-c2ccc3nc(N4CCO[C@H](CO)C4)nc(N4CCOC[C@@H]4C4CCCCC4)c3c2)c2cc[nH]c2c1=O [Cpd. 13, 4-(4-((S)-3-cyclohexylmorpholino)-2-((S)-2-(hydroxymethyl)morpholino)quinazolin-6-yl)-6-methyl-1,6-dihydro-7H-pyrrolo[2,3-c]pyridin-7-one]",,,< 100,,< 100,
"Cn1cc(-c2ccc3nc(-c4cnn(CC(C)(C)O)c4)nc(N4CCOC[C@@H]4c4ccc(F)cc4)c3c2)c2cc[nH]c2c1=O [Cpd. 5, (S)-4-(4-(3-(4-fluorophenyl)morpholino)-2-(1-(2-hydroxy-2-methylpropyl)-1H-pyrazol-4-yl)quinazolin-6-yl)-6-methyl-1,6-dihydro-7H-pyrrolo[2,3-c]pyridin-7-one]",< 100,100 to 500,< 100,< 100,< 100,"IC50 [6, 18]: < 100 nM"
"Cc1cc(-c2ccc3nc(-c4cnn(CC(C)(C)O)c4)nc(N4CCOC[C@@H]4C4CCCCC4)c3c2)cn(C)c1=O [Cpd. 12, (S)-5-(4-(3-cyclohexylmorpholino)-2-(1-(2-hydroxy-2-methylpropyl)-1H-pyrazol-4-yl)quinazolin-6-yl)-1,3-dimethylpyridin-2(1H)-one]",,,100 to 500,,100 to 500,
"Cn1cc(-c2ccc3nc(-c4cnn(CC(C)(C)O)c4)nc(N4CCOC[C@@H]4C4CCCCC4)c3c2)c2cc[nH]c2c1=O [Cpd. 14, (S)-4-(4-(3-cyclohexylmorpholino)-2-(1-(2-hydroxy-2-methylpropyl)-1H-pyrazol-4-yl)quinazolin-6-yl)-6-methyl-1,6-dihydro-7H-pyrrolo[2,3-c]pyridin-7-one]",,,100 to 500,,< 100,
"Cn1cc(-c2ccc3nc(-c4cnn(CC(C)(C)O)c4)nc(N4CCOC[C@@H]4C4CC4)c3c2)c2cc[nH]c2c1=O [Cpd. 4, (S)-4-(4-(3-cyclopropylmorpholino)-2-(1-(2-hydroxy-2-methylpropyl)-1H-pyrazol-4-yl)quinazolin-6-yl)-6-methyl-1,6-dihydro-7H-pyrrolo[2,3-c]pyridin-7-one]",< 100,< 100,< 100,< 100,< 100,
"Cn1cc(-c2ccc3nc(N4CCO[C@H](CO)C4)nc(N4CCOC[C@@H]4c4ccc(F)cc4)c3c2)c2cc[nH]c2c1=O [Cpd. 15, 4-(4-((S)-3-(4-fluorophenyl)morpholino)-2-((S)-2-(hydroxymethyl)morpholino)quinazolin-6-yl)-6-methyl-1,6-dihydro-7H-pyrrolo[2,3-c]pyridin-7-one]",,,< 100,,< 100,
"Cc1cc(-c2ccc3nc(-c4cnn(CC(C)(C)O)c4)nc(N4CCOC[C@@H]4c4ccccc4)c3c2)cn(C)c1=O [Cpd. 1, (S)-5-(2-(1-(2-hydroxy-2-methylpropyl)-1H-pyrazol-4-yl)-4-(3-phenylmorpholino)quinazolin-6-yl)-1,3-dimethylpyridin-2(1H)-one]",< 100,100 to 500,< 100,< 100,< 100,"Kd [7]: < 100 nM; IC50 ([6]; Kasumi 1, 72 h): < 100 nM; Kd [8]: < 100 nM; Kd [9]: < 100 nM; Kd [10]: < 100 nM; Kd [11]: < 100 nM; Kd [12]: < 100 nM; Kd [13]: < 100 nM; Kd [14]: < 100 nM; Kd [15]: < 100 nM; Kd ([4]; Table 3): < 100 nM; Kd [16]: < 100 nM; Kd [17]: < 100 nM"
"Cc1cc(-c2ccc3nc(-c4cnn(CC(C)(C)O)c4)nc(N4CCOC[C@@H]4c4ccc(F)cc4)c3c2)cn(C)c1=O [Cpd. 6, (S)-5-(4-(3-(4-fluorophenyl)morpholino)-2-(1-(2-hydroxy-2-methylpropyl)-1H-pyrazol-4-yl)quinazolin-6-yl)-1,3-dimethylpyridin-2(1H)-one]",< 100,100 to 500,< 100,< 100,< 100,"IC50 [6, 18]: < 100 nM"
"Cn1cc(-c2ccc3nc(-c4cnn(CC(C)(C)O)c4)nc(N4CCOC[C@@H]4c4ccccc4)c3c2)c2cc[nH]c2c1=O [Cpd. 2, (S)-4-(2-(1-(2-hydroxy-2-methylpropyl)-1H-pyrazol-4-yl)-4-(3-phenylmorpholino)quinazolin-6-yl)-6-methyl-1,6-dihydro-7H-pyrrolo[2,3-c]pyridin-7-one]",< 100,< 100,< 100,< 100,< 100,"Kd [7]: < 100 nM; IC50 [6, 18]: < 100 nM; Kd [8]: < 100 nM; Kd [9]: < 100 nM; Kd [10]: < 100 nM; Kd [11]: < 100 nM; Kd [12]: < 100 nM; Kd [13]: < 100 nM; Kd [14]: < 100 nM; Kd [15]: < 100 nM; Kd ([4]; Table 3): < 100 nM; Kd [16]: < 100 nM; Kd [17]: < 100 nM"
"Cc1cc(-c2ccc3nc(N4CCO[C@H](CO)C4)nc(N4CCOC[C@@H]4c4ccccc4)c3c2)cn(C)c1=O [Cpd. 11, 5-(2-((S)-2-(hydroxymethyl)morpholino)-4-((S)-3-phenylmorpholino)quinazolin-6-yl)-1,3-dimethylpyridin-2(1H)-one]",,,< 100,,< 100,
"Cc1cc(-c2ccc3nc(N4CCO[C@H](CO)C4)nc(N4CCOC[C@@H]4C4CCCCC4)c3c2)cn(C)c1=O [Cpd. 10, 5-(4-((S)-3-cyclohexylmorpholino)-2-((S)-2-(hydroxymethyl)morpholino)quinazolin-6-yl)-1,3-dimethylpyridin-2(1H)-one]",,,100 to 500,,100 to 500,
